Among the test systems are HCC-2998 colon; HCT-15 colon; IGROV1 ovarian; LOX IMVI melanoma; M14 melanoma; OVCAR-4 ovarian; SF-539 CNS; SK-MEL-2 melanoma; SK-MEL-5 melanoma; SNB-75 CNS.
Test in all cases: inhibition of tumour cell growth, NCI panel, 48 h

This note sets out measurements from PubChem BioAssay (NCI).

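Dose response: 5 concentrations. Exposure: 48 h. Format: 96-well plates. Endpoint: linear interpolation; highest concentration if not reached. Abbreviation: GI50, concentration required for 50% inhibition of growth. TGI is the concentration that stops growth completely.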

On to `CC(=O)OC1(C#N)CC2OC1C1C2N1C(=O)c1ccccc1` (centres undefined), for which the TGI in the experiment with HCC-2998 colon, in the experiment with HCT-15 colon, with IGROV1 ovarian, with LOX IMVI melanoma, in the experiment on M14 melanoma and in the experiment on OVCAR-4 ovarian was more than 100 µM each time. The TGI with SF-539 CNS, in the experiment with SK-MEL-2 melanoma, in the experiment with SK-MEL-5 melanoma and in the experiment on SNB-75 CNS was more than 100 µM in each case.

With `Cc1cc2c3ccccc3n(C)c2c2c1C(=O)c1ccccc1C2=O`, the TGI in the experiment with HCC-2998 colon was 43.6 µM; with IGROV1 ovarian it was 54.3 µM; in the experiment with M14 melanoma, 40.9 µM; with OVCAR-4 ovarian it was 51.4 µM; with SF-539 CNS, more than 100 µM; with SK-MEL-2 melanoma, 41.3 µM. This compound had a TGI in the experiment with SNB-75 CNS of more than 100 µM.

`O=C1Cc2cc(CCn3ccnc3)c(Cl)cc2N1`: the GI50 with HCC-2998 colon was 32.2 µM; in the experiment with HCT-15 colon it was 7.07 µM; in the experiment with IGROV1 ovarian, more than 100 µM; with LOX IMVI melanoma, 85.3 µM; in the experiment on M14 melanoma it was 3.46 µM; in the experiment on OVCAR-4 ovarian, 45 µM. Besides, the GI50 with SF-539 CNS was 60 µM; in the experiment on SK-MEL-2 melanoma, 5.78 µM; in the experiment with SK-MEL-5 melanoma it was 8.12 µM; in the experiment with SNB-75 CNS, 21.6 µM. Also, the TGI with HCC-2998 colon was more than 100 µM; in the experiment with HCT-15 colon, more than 100 µM; in the experiment with IGROV1 ovarian, more than 100 µM; with LOX IMVI melanoma it was more than 100 µM; with M14 melanoma it was 39.8 µM; in the experiment on OVCAR-4 ovarian, more than 100 µM. In addition, the TGI in the experiment with SF-539 CNS is more than 100 µM; in the experiment on SK-MEL-2 melanoma, 73.6 µM; in the experiment with SK-MEL-5 melanoma, more than 100 µM; with SNB-75 CNS, more than 100 µM.

On to `Nc1nc(-c2ccccc2)c(-c2ccccc2)c(-c2nc(N)nc(-c3ccccc3)c2-c2ccccc2)n1`, for which the TGI in the experiment on HCC-2998 colon, with HCT-15 colon, in the experiment on IGROV1 ovarian, in the experiment on LOX IMVI melanoma, in the experiment on M14 melanoma and with OVCAR-4 ovarian was more than 100 µM each time. In addition, the TGI with SF-539 CNS, in the experiment with SK-MEL-2 melanoma, in the experiment on SK-MEL-5 melanoma and in the experiment with SNB-75 CNS was more than 100 µM each time.

As to `COC(=O)C(C(=O)C(=O)Nc1cccc(O)c1)c1nc2ccc(Cl)cc2[nH]c1=O` (centres undefined), the TGI in the experiment on HCC-2998 colon, in the experiment on HCT-15 colon, in the experiment on IGROV1 ovarian, in the experiment with LOX IMVI melanoma, in the experiment with M14 melanoma and in the experiment with OVCAR-4 ovarian was more than 100 µM each time. For the same compound, the TGI in the experiment with SF-539 CNS, with SK-MEL-2 melanoma, in the experiment with SK-MEL-5 melanoma and with SNB-75 CNS was more than 100 µM throughout.

On to `COc1ccc2c(c1)C(=O)c1c-2n(CCCN=[N+]=[N-])c(=O)c2ccccc12`, for which the GI50 with HCC-2998 colon was 61.9 µM; in the experiment with HCT-15 colon, 58.4 µM; with IGROV1 ovarian, 32.8 µM; with LOX IMVI melanoma, 27.9 µM; with M14 melanoma, 75.1 µM; in the experiment with OVCAR-4 ovarian, 58.6 µM. Also, the GI50 in the experiment with SF-539 CNS was 44.8 µM; in the experiment with SK-MEL-2 melanoma, 46 µM; with SK-MEL-5 melanoma, 14.6 µM; with SNB-75 CNS, 18.8 µM. The TGI in the experiment with HCC-2998 colon, in the experiment on HCT-15 colon, with IGROV1 ovarian, with LOX IMVI melanoma, in the experiment with M14 melanoma and in the experiment with OVCAR-4 ovarian was more than 100 µM in each case. Moreover, the TGI with SF-539 CNS was more than 100 µM; with SK-MEL-2 melanoma, more than 100 µM; with SK-MEL-5 melanoma it was more than 100 µM; in the experiment on SNB-75 CNS, 65.2 µM.

Take `O=S(=O)(NCCNc1nccc(-c2c(-c3cccc(O)c3)nc3sccn23)n1)c1ccc(F)cc1`: the GI50 in the experiment with HCC-2998 colon is 10.2 µM; in the experiment on HCT-15 colon, 10.8 µM; with IGROV1 ovarian, 3.53 µM; in the experiment with LOX IMVI melanoma, 4.11 µM; with M14 melanoma, 0.568 µM; with OVCAR-4 ovarian, 6.5 µM. The GI50 is 5.23 µM in the experiment on SF-539 CNS, 4.49 µM with SK-MEL-2 melanoma, 1.61 µM in the experiment on SK-MEL-5 melanoma and 1.2 µM in the experiment on SNB-75 CNS. The TGI was 25.7 µM with HCC-2998 colon; 55.4 µM in the experiment with HCT-15 colon; 18.1 µM with IGROV1 ovarian; 20.1 µM in the experiment on LOX IMVI melanoma; 16.6 µM in the experiment with M14 melanoma; 41.3 µM with OVCAR-4 ovarian. In addition, the TGI with SF-539 CNS turned out to be 24.6 µM; in the experiment with SK-MEL-2 melanoma, 20.2 µM; with SK-MEL-5 melanoma, 3.98 µM; with SNB-75 CNS, 34.9 µM.

Regarding `O=C1NC(=NCc2cccs2)SC1Cc1ccc2ncccc2c1` (centres undefined), the GI50 in the experiment on HCC-2998 colon was more than 25 µM; in the experiment with HCT-15 colon, 11.4 µM; in the experiment with IGROV1 ovarian, more than 16.5 µM; in the experiment on LOX IMVI melanoma it was 19.2 µM; with M14 melanoma, 11 µM; in the experiment with OVCAR-4 ovarian, more than 25 µM. For the same compound, the GI50 was 10.3 µM in the experiment on SF-539 CNS, more than 25 µM in the experiment on SK-MEL-2 melanoma, 17.4 µM with SK-MEL-5 melanoma and 7.49 µM in the experiment on SNB-75 CNS. Also, the TGI with HCC-2998 colon, in the experiment on HCT-15 colon, with IGROV1 ovarian, with LOX IMVI melanoma, in the experiment with M14 melanoma and with OVCAR-4 ovarian was more than 25 µM throughout. For the same compound, the TGI with SF-539 CNS, in the experiment on SK-MEL-2 melanoma, in the experiment on SK-MEL-5 melanoma and in the experiment with SNB-75 CNS was more than 25 µM in each case.

As for `O=C1NC(=NCC(CO)c2ccccc2)S/C1=C\c1ccc2ncccc2c1` (centres undefined), the GI50 in the experiment on HCC-2998 colon is 24.6 µM; in the experiment with HCT-15 colon, more than 21.8 µM; in the experiment with IGROV1 ovarian, 19 µM; with LOX IMVI melanoma it was 17.4 µM; with M14 melanoma, more than 25 µM; in the experiment with OVCAR-4 ovarian, more than 22.1 µM. The GI50 is 11.2 µM in the experiment on SF-539 CNS, more than 25 µM in the experiment on SK-MEL-2 melanoma, more than 25 µM in the experiment with SK-MEL-5 melanoma and more than 7 µM in the experiment with SNB-75 CNS. Besides, the TGI with HCC-2998 colon, in the experiment on HCT-15 colon, in the experiment on IGROV1 ovarian, in the experiment on LOX IMVI melanoma, in the experiment with M14 melanoma and in the experiment with OVCAR-4 ovarian was more than 25 µM in each case. Further, the TGI in the experiment with SF-539 CNS, with SK-MEL-2 melanoma, in the experiment on SK-MEL-5 melanoma and in the experiment on SNB-75 CNS was more than 25 µM each time.

Turning to `CC1=C(C(=O)Nc2cccc(C(F)(F)F)c2)C(c2ccc(O)cc2)C(C(=O)Nc2cccc(C(F)(F)F)c2)=C(C)N1`, the TGI was 36.3 µM in the experiment with HCC-2998 colon; 89.2 µM with IGROV1 ovarian; 33.1 µM in the experiment on LOX IMVI melanoma; 35.5 µM in the experiment with M14 melanoma; 86.6 µM in the experiment with OVCAR-4 ovarian; 60.5 µM in the experiment with SF-539 CNS. Also, the TGI was 34.6 µM in the experiment on SK-MEL-2 melanoma, 33.6 µM in the experiment on SK-MEL-5 melanoma and 63.9 µM with SNB-75 CNS.

In the case of `CCOC(=O)C1=C(Nc2ccccc2)OC/C1=N\NC(=O)Cc1ccccc1`, the TGI in the experiment with HCC-2998 colon, with IGROV1 ovarian, in the experiment with LOX IMVI melanoma, in the experiment with M14 melanoma, in the experiment with OVCAR-4 ovarian and with SF-539 CNS was more than 50 µM each time. For the same compound, the TGI in the experiment with SK-MEL-2 melanoma, in the experiment on SK-MEL-5 melanoma and with SNB-75 CNS was more than 50 µM throughout.

`COc1ccc(/C=C/c2cc(OC)c(O[Si](C)(C)C(C)(C)C)c(OC)c2)cc1`: the TGI with HCC-2998 colon, in the experiment with HCT-15 colon, in the experiment on IGROV1 ovarian, with M14 melanoma, in the experiment on OVCAR-4 ovarian and with SF-539 CNS was more than 100 µM in each case. The TGI with SK-MEL-2 melanoma, with SK-MEL-5 melanoma and in the experiment on SNB-75 CNS was more than 100 µM in each case.

As to `CN(C)CC(C(=O)c1ccccc1)c1ccccc1` (centres undefined), the GI50 in the experiment with HCC-2998 colon was 4.86 µM; in the experiment on HCT-15 colon it was 1.11 µM; in the experiment on IGROV1 ovarian, 2.2 µM; in the experiment with LOX IMVI melanoma, 0.765 µM; in the experiment on M14 melanoma it was 1.46 µM; with SF-539 CNS it was 2.25 µM. Further, the GI50 in the experiment on SK-MEL-2 melanoma was 3.35 µM; with SK-MEL-5 melanoma, 1.57 µM; in the experiment with SNB-75 CNS, 3.54 µM. Moreover, the TGI was found to be 16.4 µM in the experiment on HCC-2998 colon; 2.54 µM with HCT-15 colon; 5.47 µM with IGROV1 ovarian; 2.33 µM in the experiment with LOX IMVI melanoma; 2.92 µM in the experiment with M14 melanoma; 5.04 µM in the experiment with SF-539 CNS. Also, the TGI in the experiment on SK-MEL-2 melanoma was determined as 7.87 µM; with SK-MEL-5 melanoma, 3.45 µM; in the experiment with SNB-75 CNS, 14.4 µM.

As for `CN(C)CCNC(=O)c1cccc2nc3ccc4ccccc4c3nc12`, the TGI is 0.282 µM in the experiment on HCC-2998 colon; 0.468 µM in the experiment on HCT-15 colon; 0.228 µM in the experiment with LOX IMVI melanoma; 1.14 µM in the experiment on M14 melanoma; 1.02 µM with OVCAR-4 ovarian; 0.271 µM in the experiment with SF-539 CNS. In addition, the TGI in the experiment with SK-MEL-2 melanoma amounted to 0.335 µM; in the experiment on SK-MEL-5 melanoma, 0.236 µM; in the experiment on SNB-75 CNS, 0.517 µM.

With `C/C(=N/O)C1CC=C(S(=O)(=O)c2ccccc2)C1` (centres undefined), the TGI in the experiment with HCC-2998 colon, with HCT-15 colon, with IGROV1 ovarian, with LOX IMVI melanoma, in the experiment on M14 melanoma and in the experiment with OVCAR-4 ovarian was more than 100 µM throughout. The TGI in the experiment on SF-539 CNS, in the experiment on SK-MEL-2 melanoma and in the experiment on SNB-75 CNS was more than 100 µM throughout.

Consider `O=C(CC(=O)N1N=C(n2ccc3ccccc32)CC1c1ccccc1)Nc1cccc(Cl)c1` (centres undefined), for which the TGI with HCC-2998 colon, with HCT-15 colon, with IGROV1 ovarian, in the experiment with LOX IMVI melanoma, with M14 melanoma and in the experiment on OVCAR-4 ovarian was more than 100 µM each time. In addition, the TGI with SF-539 CNS, in the experiment on SK-MEL-2 melanoma and in the experiment on SNB-75 CNS was more than 100 µM throughout.
